Results as given in patent US20250145594A1, “MODULATORS OF THE INTEGRATED STRESS PATHWAY” (Calico Life Sciences LLC, priority 2020, published 2025).

Test system: ATF4 luciferase reporter in HEK293T cells
Assay: ATF4-Luc assay (in vitro model of VWMD)
Format: cell-based, human
Details: Homo sapiens, HEK-293T, 7 h, HEK293T cells carrying the ATF4 luciferase reporter, 1 μg/mL tunicamycin, One Glo luminescence
Summary of the method: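 Stable HEK293T line expressing firefly luciferase behind the human ATF4 5′-UTR, treated with 1 μg/mL tunicamycin plus compound for 7 hours. Luminescence read with One Glo; EC50 determined.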

SMILES | EC50 [µM]
O=C(NC12CC(n3cc(N4CC[C@H](OC(F)(F)F)C4)cn3)(C1)C2)[C@H]1C[C@@H](O)c2cc(Cl)ccc2O1 [Compound 355, (2R,4R)-6-chloro-4-hydroxy-N-(3-{4-[(3S)-3-(trifluoromethoxy)pyrrolidin-1-yl]-1H-pyrazol-1-yl}bicyclo[1.1.1]pentan-1-yl)-3,4-dihydro-2H-1-benzopyran-2-carboxamide] | 0.01 to 0.05
O=C(NC12CC(n3cc([C@H]4[C@@H]5CN(CC(F)(F)F)C[C@@H]54)cn3)(C1)C2)[C@H]1C[C@@H](O)c2cc(Cl)ccc2O1 [Compound 583, (2R,4R)-6-chloro-4-hydroxy-N-(3-{4-[(1R,5S,6s)-3-(2,2,2-trifluoroethyl)-3-azabicyclo[3.1.0]hexan-6-yl]-1H-pyrazol-1-yl}bicyclo[1.1.1]pentan-1-yl)-3,4-dihydro-2H-1-benzopyran-2-carboxamide] | < 0.01
O=C(CO[C@H]1C[C@@H](OC(F)(F)F)C1)NC12CC(NC(=O)[C@H]3C[C@H](O)c4cc(Cl)c(Cl)cc4O3)(C1)C2 [Compound 495, (2R,4S)-6,7-dichloro-4-hydroxy-N-[3-(2-{[(1s,3S)-3-(trifluoromethoxy)cyclobutyl]oxy}acetamido)bicyclo[1.1.1]pentan-1-yl]-3,4-dihydro-2H-1-benzopyran-2-carboxamide] | < 0.01
O=C(COc1ccc(Cl)c(F)c1)NC12CCC(n3cc(OCCOC(F)(F)F)cn3)(C1)C2 [Compound 595, 2-(4-chloro-3-fluorophenoxy)-N-(4-{4-[2-(trifluoromethoxy)ethoxy]-1H-pyrazol-1-yl}bicyclo[2.1.1]hexan-1-yl)acetamide] | 0.25 to 0.5
O=C(NC12CC(n3cc(C4CCN(CC(F)(F)F)CC4)cn3)(C1)C2)[C@H]1C[C@@H](O)c2cc(Cl)ccc2O1 [Compound 580, (2R,4R)-6-chloro-4-hydroxy-N-(3-{4-[1-(2,2,2-trifluoroethyl)piperidin-4-yl]-1H-pyrazol-1-yl}bicyclo[1.1.1]pentan-1-yl)-3,4-dihydro-2H-1-benzopyran-2-carboxamide] | < 0.01
O=C(NC12CC(n3cc(-c4ccc(C(F)(F)F)cn4)cn3)(C1)C2)[C@H]1C[C@H](O)c2cc(C(F)(F)F)ccc2O1 [Compound 549, (2R,4S)-4-hydroxy-6-(trifluoromethyl)-N-(3-{4-[5-(trifluoromethyl)pyridin-2-yl]-1H-pyrazol-1-yl}bicyclo[1.1.1]pentan-1-yl)-3,4-dihydro-2H-1-benzopyran-2-carboxamide] | < 0.01
O=C(NC12CC(n3cc(C(=O)N4CC[C@@H](COC(F)(F)F)C4)cn3)(C1)C2)[C@H]1C[C@@H](O)c2cc(Cl)ccc2O1 [Compound 397, (2R,4R)-6-chloro-4-hydroxy-N-[3-(4-{(3R)-3-[(trifluoromethoxy)methyl]pyrrolidine-1-carbonyl}-1H-pyrazol-1-yl)bicyclo[1.1.1]pentan-1-yl]-3,4-dihydro-2H-1-benzopyran-2-carboxamide] | 0.05 to 0.25
O=C(NC12CC(n3cc(-c4ccc(OC(F)F)nc4)cn3)(C1)C2)[C@@H]1C[C@@H](O)c2cc(Cl)ccc2O1 [Compound 332, (2S,4R)-6-chloro-N-(3-{4-[6-(difluoromethoxy)pyridin-3-yl]-1H-pyrazol-1-yl}bicyclo[1.1.1]pentan-1-yl)-4-hydroxy-3,4-dihydro-2H-1-benzopyran-2-carboxamide] | < 0.01
O=C(NC12CC(n3cc(-c4ccc(OC(F)(F)F)cn4)cn3)(C1)C2)[C@@H]1C[C@@H](O)c2cc(Cl)c(F)cc2O1 [Compound 474, (2S,4R)-6-chloro-7-fluoro-4-hydroxy-N-(3-{4-[5-(trifluoromethoxy)pyridin-2-yl]-1H-pyrazol-1-yl}bicyclo[1.1.1]pentan-1-yl)-3,4-dihydro-2H-1-benzopyran-2-carboxamide] | < 0.01
O=C(COc1ccc(Cl)c(F)c1)NC12CC(n3cc(OCCOC(F)(F)F)cn3)(C1)C2 [Compound 451, 2-(4-chloro-3-fluorophenoxy)-N-(3-{4-[2-(trifluoromethoxy)ethoxy]-1H-pyrazol-1-yl}bicyclo[1.1.1]pentan-1-yl)acetamide] | < 0.01
O=C(NC12CC(n3cc(C(=O)N4CC(COC(F)(F)F)C4)cn3)(C1)C2)[C@H]1C[C@@H](O)c2cc(F)c(F)cc2O1 [Compound 374, (2R,4R)-6,7-difluoro-4-hydroxy-N-[3-(4-{3-[(trifluoromethoxy)methyl]azetidine-1-carbonyl}-1H-pyrazol-1-yl)bicyclo[1.1.1]pentan-1-yl]-3,4-dihydro-2H-1-benzopyran-2-carboxamide] | 0.05 to 0.25
O=C(NC12CC(n3cc(-c4ccc(C5CC5)cn4)cn3)(C1)C2)[C@H]1C[C@@H](O)c2cc(Cl)ccc2O1 [Compound 570, (2R,4R)-6-chloro-N-{3-[4-(5-cyclopropylpyridin-2-yl)-1H-pyrazol-1-yl]bicyclo[1.1.1]pentan-1-yl}-4-hydroxy-3,4-dihydro-2H-1-benzopyran-2-carboxamide] | < 0.01
O=C(NC12CC(n3cc(OCCOC(F)(F)F)cn3)(C1)C2)[C@@H]1C[C@@H](O)c2cc(Cl)c(Cl)cc2O1 [Compound 434, (2S,4R)-6,7-dichloro-4-hydroxy-N-(3-{4-[2-(trifluoromethoxy)ethoxy]-1H-pyrazol-1-yl}bicyclo[1.1.1]pentan-1-yl)-3,4-dihydro-2H-1-benzopyran-2-carboxamide] | < 0.01
O=C(NC12CC(n3cc(-c4ccc(C(F)(F)F)cn4)cn3)(C1)C2)[C@@H]1C[C@@H](O)c2cc(C(F)(F)F)ccc2O1 [Compound 548, (2S,4R)-4-hydroxy-6-(trifluoromethyl)-N-(3-{4-[5-(trifluoromethyl)pyridin-2-yl]-1H-pyrazol-1-yl}bicyclo[1.1.1]pentan-1-yl)-3,4-dihydro-2H-1-benzopyran-2-carboxamide] | < 0.01
O=C(NC12CC(n3cc(OCCOC(F)(F)F)cn3)(C1)C2)[C@H]1C[C@H](O)c2cc(Cl)ccc2O1 [Compound 632, (2R,4S)-6-chloro-4-hydroxy-N-(3-{4-[2-(trifluoromethoxy)ethoxy]-1H-pyrazol-1-yl}bicyclo[1.1.1]pentan-1-yl)-3,4-dihydro-2H-1-benzopyran-2-carboxamide] | 0.01 to 0.05
O=C(NC12CC(n3cc([C@H]4C[C@@H](OC(F)(F)F)C4)nn3)(C1)C2)[C@H]1C[C@@H](O)c2cc(Cl)ccc2O1 [Compound 385, (2R,4R)-6-chloro-4-hydroxy-N-(3-{4-[cis-3-(trifluoromethoxy)cyclobutyl]-1H-1,2,3-triazol-1-yl}bicyclo[1.1.1]pentan-1-yl)-3,4-dihydro-2H-1-benzopyran-2-carboxamide] | < 0.01
O=C(NC12CC(n3cc4cc(COCC(F)(F)F)ccc4n3)(C1)C2)[C@H]1C[C@@H](O)c2cc(Cl)ccc2O1 [Compound 650, (2R,4R)-6-chloro-4-hydroxy-N-(3-{5-[(2,2,2-trifluoroethoxy)methyl]-2H-indazol-2-yl}bicyclo[1.1.1]pentan-1-yl)-3,4-dihydro-2H-1-benzopyran-2-carboxamide] | < 0.01
O=C(NC12CC(c3cnn(CCCOC(F)(F)F)c3)(C1)C2)[C@H]1C[C@@H](O)c2cc(Cl)ccc2O1 [Compound 528, (2R,4R)-6-chloro-4-hydroxy-N-(3-{1-[3-(trifluoromethoxy)propyl]-1H-pyrazol-4-yl}bicyclo[1.1.1]pentan-1-yl)-3,4-dihydro-2H-1-benzopyran-2-carboxamide] | 0.01 to 0.05
O=C(NC12CC(n3cc(N4CC(COC(F)(F)F)C4)cn3)(C1)C2)[C@H]1C[C@@H](O)c2cc(Cl)ccc2O1 [Compound 337, (2R,4R)-6-chloro-4-hydroxy-N-[3-(4-{3-[(trifluoromethoxy)methyl]azetidin-1-yl}-1H-pyrazol-1-yl)bicyclo[1.1.1]pentan-1-yl]-3,4-dihydro-2H-1-benzopyran-2-carboxamide] | 0.01 to 0.05
O=C(NC12CC(n3cc(OCCOC(F)(F)F)cn3)(C1)C2)[C@H]1CNc2cc(Cl)ccc2O1 [Compound 518, (2R)-6-chloro-N-(3-{4-[2-(trifluoromethoxy)ethoxy]-1H-pyrazol-1-yl}bicyclo[1.1.1]pentan-1-yl)-3,4-dihydro-2H-1,4-benzoxazine-2-carboxamide] | 0.01 to 0.05
O=C(N[C@H]1CC[C@H](n2cc(OCCCC(F)(F)F)cn2)CC1)[C@H]1C[C@@H](O)c2cc(Cl)c(F)cc2O1 [Compound 527, (2R,4R)-6-chloro-7-fluoro-4-hydroxy-N-((1r,4R)-4-[4-(4,4,4-trifluorobutoxy)-1H-pyrazol-1-yl]cyclohexyl)-3,4-dihydro-2H-1-benzopyran-2-carboxamide] | < 0.01
O=C(NC12CCC(n3cc(OCCCOC(F)(F)F)cn3)(C1)C2)[C@H]1C[C@@H](O)c2cc(Cl)ccc2O1 [Compound 628, (2R,4R)-6-chloro-4-hydroxy-N-(4-{4-[3-(trifluoromethoxy)propoxy]-1H-pyrazol-1-yl}bicyclo[2.1.1]hexan-1-yl)-3,4-dihydro-2H-1-benzopyran-2-carboxamide] | 0.05 to 0.25
O=C(NC12CC(n3cc(NCCCOC(F)(F)F)cn3)(C1)C2)[C@H]1C[C@@H](O)c2cc(Cl)ccc2O1 [Compound 444, (2R,4R)-6-chloro-4-hydroxy-N-[3-(4-{[3-(trifluoromethoxy)propyl]amino}-1H-pyrazol-1-yl)bicyclo[1.1.1]pentan-1-yl]-3,4-dihydro-2H-1-benzopyran-2-carboxamide] | < 0.01
O=C(NC12CC(n3cc(OCCOC(F)(F)F)cn3)(C1)C2)[C@H]1C[C@H](O)c2cc(Cl)c(Cl)cc2O1 [Compound 436, (2R,4S)-6,7-dichloro-4-hydroxy-N-(3-{4-[2-(trifluoromethoxy)ethoxy]-1H-pyrazol-1-yl}bicyclo[1.1.1]pentan-1-yl)-3,4-dihydro-2H-1-benzopyran-2-carboxamide] | < 0.01
O=C(COc1ccc(Cl)c(F)c1)N[C@H]1CC[C@H](n2cc(-c3ccc(C(F)(F)F)cn3)cn2)CC1 [Compound 598, 2-(4-chloro-3-fluorophenoxy)-N-[(1r,4r)-4-(4-[5-(trifluoromethyl)pyridin-2-yl]-1H-pyrazol-1-yl)cyclohexyl]acetamide] | < 0.01
